Results published in US4652548A (Eli Lilly and Company, priority 1984, dated 1987).

Experiments:
[1] = system: hepatic glucose output; test: Euglycemic glucose-clamp: suppression of hepatic glucose output; assay type: in vivo, human
Procedure: J. Physiol. 237:E214-E223 (1979). With this technique, an antecuubital vein is cannulated in an antegrade manner to administer the infusates. A dorsal hand vein is cannulated in a retrograde fashion and kept in a warming device (70° C.) to facilitate venous sampling and provide arterialized venous blood After insertion of the catheters, [3-3H]-glucose is infused for at least 30 minutes before initiating the hormone infusion. At the onset of hormone infusion, a priming dose of either insulin or proinsulin is administered during the initial 10 minutes in a logarithmically decreasing manner to acutely raise the serum hormone level. […] The overall glucose disposal rate is assessed isotopically for each 20 minute interval of the study.
(§1) Each subject underwent a total of 8 euglycemic glucose clamp studies, each performed on a separate day. […] Hepatic glucose output was quantitated in the basal state and during each clamp study using a primed continuous infusion of [3-3H]glucose. […] The dose response relationship for insulin and proinsulin mediated suppression of hepatic glucose output was determined by calculating the percent suppression of basal hepatic glucose output at each steady state hormone concentration obtained during the euglycemic clamp studies.

[2] = system: hepatic glucose output (HGO); test: Kinetics of deactivation of effect on hepatic glucose output (HGO); assay type: in vivo, human
Description: (§2) At this point, the hormone infusion was abruptly stopped, and the glucose concentration was maintained constant until the biologic effects of the infused hormone were no longer detectable.

[3] = system: fasting Type II diabetic patients; test: Subcutaneous administration to fasting Type II diabetic patients: plasma glucose; assay type: in vivo, human; settings: for Plasma Glucose, Mean: mean total dose 18.7 I.U. (0.2 U/kg s.c.)
[4] = system: glucose disposal; test: Euglycemic glucose-clamp: glucose disposal rate; assay type: in vivo, human
Procedure: On one day, each subject received a 5.0 μg/M^2 /min (120 mU/M^2 /min) insulin infusion over a 6 hour period. […] Each proinsulin infusion was carried out for 300 minutes, with the quantitation of its biological effects based on measurements made during the 5th hour of each study. […]

[5] = system: insulin-degrading proteases; settings: subcutaneous injection site
[6] = system: peripheral glucose uptake; test: Kinetics of activation and deactivation of effect on peripheral glucose uptake; assay type: in vivo, human
Description: Marked differences between the two hormones were noted when biologic activity was studied.
as §2

[7] = system: hepatic glucose production; test: Subcutaneous administration to Type II diabetic subjects: hepatic glucose production; assay type: in vivo, human; settings: 0.2 U/kg s.c.
[8] = after stopping 5 hour infusion
Description: as §2

[9] = system: HGO
Description: For example, in non-insulin dependent diabetes mellitus (NIDDM), one of the major metabolic abnormalities that maintains the resultant hyperglycemic state is accelerated hepatic glucose production.

[10] = five Type II subjects, 0.2 U/kg s.c.
[11] = Euglycemic glucose-clamp: steady state serum hormone levels; assay type: in vivo, human
Procedure: J. Physiol. 237:E214-E223 (1979). With this technique, an antecuubital vein is cannulated in an antegrade manner to administer the infusates. A dorsal hand vein is cannulated in a retrograde fashion and kept in a warming device (70° C.) to facilitate venous sampling and provide arterialized venous blood After insertion of the catheters, [3-3H]-glucose is infused for at least 30 minutes before initiating the hormone infusion. At the onset of hormone infusion, a priming dose of either insulin or proinsulin is administered during the initial 10 minutes in a logarithmically decreasing manner to acutely raise the serum hormone level. The amount of insulin or proinsulin given during this initial 10 minute period is roughly twice that given during each subsequent 10 minute interval by a continuous hormone infusion The serum glucose is maintained between 80 and 90 mg/dl throughout the study period with a coefficient of variation of less than 5% by means of a variable rate of infusion of 20% dextrose. The overall glucose disposal rate is assessed isotopically for each 20 minute interval of the study.
as §1, with “day. Insulin infusion rates of 15, 40, 120, and 240 mU/M2/min were utilized to construct a dose response curve for insulin action. With this approach an attempt was made to achieve steady state insulin concentrations of 40 to 800 μU/ml (Table 1). Each subject was also studied with four different proinsulin infusions.” for “day.”

[12] = Study A (insulin 15 mU/M^2/min, proinsulin 2.75 μg/M^2/min), Mean ± SE
[13] = after stopping 5 hour infusion (human insulin 0.55, human proinsulin 2.75 μg/M2/min)

human proinsulin: human proinsulin, available by organic synthesis, isolation from human pancreas or recombinant DNA methodology
Suppression of Hepatic Glucose Output (%) [1, 12]: 80 ± 6%
Serum hormone concentration required to achieve 90% suppression of hepatic glucose output ([1]; healthy subjects, steady state, euglycemic clamp): 3.35 pmol/mL
Time until a decline in effect to suppress HGO could be detected ([2]; after infusion stopped): 120 min
Time until HGO returned to baseline values, extrapolation of the curve ([2]; after stopping 5 hour infusion): > 6 h
t 1/2 of deactivation of effect to inhibit HGO [2, 13]: 3.83 ± 0.317 h
Blood glucose level of each subject ([3]; 0.2 U/kg s.c., normal range about 80-110 mg/dl): lowered to a normal range
Hypoglycemia among subjects ([3]; five Type II subjects, 0.2 U/kg s.c., insulin: by approximately 300 minutes): hypoglycemia nowhere evidenced
Plasma Glucose, Mean ([3]; mean of subjects with values, 360 min after injection): 102 mg/dL
Plasma Glucose, Mean ([3]; mean of subjects with values, 400 min after injection): 95 mg/dL
Plasma Glucose, Mean ([3]; mean of subjects with values, 440 min after injection): 92 mg/dL
Plasma Glucose, Mean ([3]; mean of subjects with values, 480 min after injection): 96 mg/dL
Plasma Glucose, Mean ([3]; mean of subjects, 0 min after injection): 245 mg/dL
Plasma Glucose, Mean ([3]; mean of subjects, 40 min after injection): 235 mg/dL
Plasma Glucose, Mean ([3]; mean of subjects, 80 min after injection): 221 mg/dL
Plasma Glucose, Mean ([3]; mean of subjects, 120 min after injection): 205 mg/dL
Plasma Glucose, Mean ([3]; mean of subjects, 160 min after injection): 188 mg/dL
Plasma Glucose, Mean ([3]; mean of subjects, 280 min after injection): 129 mg/dL
Plasma Glucose, Mean ([3]; mean of subjects, 300 min after injection): 113 mg/dL
Plasma Glucose ([3]; subject four, total dose 16.3 I.U. (0.2 U/kg s.c.), 0 min after injection): 290 mg/dL
Plasma Glucose ([3]; subject four, total dose 16.3 I.U. (0.2 U/kg s.c.), 40 min after injection): 282 mg/dL
Plasma Glucose ([3]; subject four, total dose 16.3 I.U. (0.2 U/kg s.c.), 80 min after injection): 272 mg/dL
Plasma Glucose ([3]; subject four, total dose 16.3 I.U. (0.2 U/kg s.c.), 120 min after injection): 250 mg/dL
Plasma Glucose ([3]; subject four, total dose 16.3 I.U. (0.2 U/kg s.c.), 160 min after injection): 230 mg/dL
Plasma Glucose ([3]; subject four, total dose 16.3 I.U. (0.2 U/kg s.c.), 200 min after injection): 200 mg/dL
Plasma Glucose ([3]; subject four, total dose 16.3 I.U. (0.2 U/kg s.c.), 240 min after injection): 183 mg/dL
Plasma Glucose ([3]; subject four, total dose 16.3 I.U. (0.2 U/kg s.c.), 280 min after injection): 152 mg/dL
Plasma Glucose ([3]; subject four, total dose 16.3 I.U. (0.2 U/kg s.c.), 300 min after injection): 127 mg/dL
Plasma Glucose ([3]; subject four, total dose 16.3 I.U. (0.2 U/kg s.c.), 360 min after injection): 101 mg/dL
Plasma Glucose ([3]; subject four, total dose 16.3 I.U. (0.2 U/kg s.c.), 400 min after injection): 82 mg/dL
Plasma Glucose ([3]; subject four, total dose 16.3 I.U. (0.2 U/kg s.c.), 440 min after injection): 77 mg/dL
Plasma Glucose ([3]; subject one, total dose 14.8 I.U. (0.2 U/kg s.c.), 0 min after injection): 213 mg/dL
Plasma Glucose ([3]; subject one, total dose 14.8 I.U. (0.2 U/kg s.c.), 40 min after injection): 203 mg/dL
Plasma Glucose ([3]; subject one, total dose 14.8 I.U. (0.2 U/kg s.c.), 80 min after injection): 187 mg/dL
Plasma Glucose ([3]; subject one, total dose 14.8 I.U. (0.2 U/kg s.c.), 160 min after injection): 140 mg/dL
Plasma Glucose ([3]; subject one, total dose 14.8 I.U. (0.2 U/kg s.c.), 240 min after injection): 81 mg/dL
Plasma Glucose ([3]; subject one, total dose 14.8 I.U. (0.2 U/kg s.c.), 280 min after injection): 77 mg/dL
Plasma Glucose ([3]; subject one, total dose 14.8 I.U. (0.2 U/kg s.c.), 300 min after injection): 80 mg/dL
Plasma Glucose ([3]; subject one, total dose 14.8 I.U. (0.2 U/kg s.c.), 320 min after injection): 80 mg/dL
Plasma Glucose ([3]; subject three, total dose 27.2 I.U. (0.2 U/kg s.c.), 0 min after injection): 159 mg/dL
Plasma Glucose ([3]; subject three, total dose 27.2 I.U. (0.2 U/kg s.c.), 40 min after injection): 144 mg/dL
Plasma Glucose ([3]; subject three, total dose 27.2 I.U. (0.2 U/kg s.c.), 120 min after injection): 128 mg/dL
Plasma Glucose ([3]; subject three, total dose 27.2 I.U. (0.2 U/kg s.c.), 200 min after injection): 110 mg/dL
Plasma Glucose ([3]; subject three, total dose 27.2 I.U. (0.2 U/kg s.c.), 240 min after injection): 101 mg/dL
Plasma Glucose ([3]; subject three, total dose 27.2 I.U. (0.2 U/kg s.c.), 280 min after injection): 98 mg/dL
Plasma Glucose ([3]; subject three, total dose 27.2 I.U. (0.2 U/kg s.c.), 300 min after injection): 88 mg/dL
Plasma Glucose ([3]; subject three, total dose 27.2 I.U. (0.2 U/kg s.c.), 360 min after injection): 84 mg/dL
Plasma Glucose ([3]; subject three, total dose 27.2 I.U. (0.2 U/kg s.c.), 400 min after injection): 85 mg/dL
Plasma Glucose ([3]; subject three, total dose 27.2 I.U. (0.2 U/kg s.c.), 440 min after injection): 86 mg/dL
Plasma Glucose ([3]; subject three, total dose 27.2 I.U. (0.2 U/kg s.c.), 480 min after injection): 88 mg/dL
Plasma Glucose ([3]; subject two, total dose 20.0 I.U. (0.2 U/kg s.c.), 0 min after injection): 231 mg/dL
Plasma Glucose ([3]; subject two, total dose 20.0 I.U. (0.2 U/kg s.c.), 40 min after injection): 217 mg/dL
Plasma Glucose ([3]; subject two, total dose 20.0 I.U. (0.2 U/kg s.c.), 80 min after injection): 201 mg/dL
Plasma Glucose ([3]; subject two, total dose 20.0 I.U. (0.2 U/kg s.c.), 120 min after injection): 191 mg/dL
Plasma Glucose ([3]; subject two, total dose 20.0 I.U. (0.2 U/kg s.c.), 160 min after injection): 182 mg/dL
Plasma Glucose ([3]; subject two, total dose 20.0 I.U. (0.2 U/kg s.c.), 240 min after injection): 164 mg/dL
Plasma Glucose ([3]; subject two, total dose 20.0 I.U. (0.2 U/kg s.c.), 280 min after injection): 143 mg/dL
Plasma Glucose ([3]; subject two, total dose 20.0 I.U. (0.2 U/kg s.c.), 300 min after injection): 134 mg/dL
Plasma Glucose ([3]; subject two, total dose 20.0 I.U. (0.2 U/kg s.c.), 360 min after injection): 128 mg/dL
Plasma Glucose ([3]; subject two, total dose 20.0 I.U. (0.2 U/kg s.c.), 400 min after injection): 117 mg/dL
Plasma Glucose ([3]; subject two, total dose 20.0 I.U. (0.2 U/kg s.c.), 440 min after injection): 112 mg/dL
Plasma Glucose ([3]; subject two, total dose 20.0 I.U. (0.2 U/kg s.c.), 480 min after injection): 104 mg/dL
Plasma Glucose ([3]; subject two, total dose 20.0 I.U. (0.2 U/kg s.c.), 500 min after injection): 100 mg/dL
Plasma Glucose ([3]; subject, total dose 15.0 I.U. (0.2 U/kg s.c.), 0 min after injection): 332 mg/dL
Plasma Glucose ([3]; subject, total dose 15.0 I.U. (0.2 U/kg s.c.), 40 min after injection): 328 mg/dL
Plasma Glucose ([3]; subject, total dose 15.0 I.U. (0.2 U/kg s.c.), 80 min after injection): 308 mg/dL
Plasma Glucose ([3]; subject, total dose 15.0 I.U. (0.2 U/kg s.c.), 120 min after injection): 288 mg/dL
Plasma Glucose ([3]; subject, total dose 15.0 I.U. (0.2 U/kg s.c.), 160 min after injection): 272 mg/dL
Plasma Glucose ([3]; subject, total dose 15.0 I.U. (0.2 U/kg s.c.), 200 min after injection): 247 mg/dL
Plasma Glucose ([3]; subject, total dose 15.0 I.U. (0.2 U/kg s.c.), 240 min after injection): 210 mg/dL
Plasma Glucose ([3]; subject, total dose 15.0 I.U. (0.2 U/kg s.c.), 280 min after injection): 174 mg/dL
Plasma Glucose ([3]; subject, total dose 15.0 I.U. (0.2 U/kg s.c.), 360 min after injection): 94 mg/dL
Time to reach steady state rates of glucose disposal ([4]; 5 subjects, insulin 5.0 μg/M^2/min over 6 h, proinsulin 22.5 μg/M^2/min over 8 h): ≤ 5 h
Glucose Disposal Rate [4, 12]: 122 ± 11 mg/M^2/min
Degradation by insulin-degrading proteases [5]: not degraded
Decay of biologic effect to stimulate glucose disposal, more slowly than human insulin ([6]; after stopping 5 hour infusion): 2.2 times
t 1/2 of deactivation of effects on glucose disposal [6, 13]: 1.45 ± 0.233 h
Time needed to reach steady state biologic effects compared to human insulin ([6]; both stimulation of glucose disposal and inhibition of HGO): much slower
Time to steady state effect to stimulate glucose disposal ([6]; continuous infusion): 5 h
Time until glucose disposal rates returned to basal ([6]; following cessation of 2.75 μg/M2/min infusion): 160 min
Effect on elevated hepatic glucose production [7]: suppressed into the normal range
Time of maximum suppression of hepatic glucose production [7]: 264 ± 31 min
Minimum hepatic glucose production ([7]; basal 3.83±0.6): 1.21 ± 0.2 mg/kg/min
Time by which hormone concentrations are below biologically effective values [8]: ≤ 90 minutes
Expected suppression of HGO in NIDDM subjects ([9]; circulating concentration approximately 1.5-2 pmol/ml): approximately 50%
Expected duration of adequate glycemic control ([9]; sustained level 1.5-2 pmol/ml for about 3 hours by CSII or single s.c. injection): 8 to 10 h
Mean peak hormone blood level [10]: 6.8 pmol/mL
Time of mean peak hormone blood level [10]: 230 ± 33 min
Steady State Hormone Levels (Mean ± SEM) ([11]; infusion A: insulin 0.63, proinsulin 2.75 μg/M^2/min): 2.55 ± 0.16 pmol/mL
Steady State Hormone Levels (Mean ± SEM) ([11]; infusion B: insulin 1.67, proinsulin 7.5 μg/M^2/min): 6.24 ± 0.49 pmol/mL
Steady State Hormone Levels (Mean ± SEM) ([11]; infusion C: insulin 5.0, proinsulin 22.5 μg/M^2/min): 21.2 ± 1.4 pmol/mL
Steady State Hormone Levels (Mean ± SEM) ([11]; infusion D: insulin 10.0, proinsulin 45.0 μg/M^2/min): 40.0 ± 1.9 pmol/mL
